Test results from PMC7181201, “Dual P-Glycoprotein and CA XII Inhibitors: A New Strategy to Reverse the P-gp Mediated Multidrug Resistance (MDR) in Cancer Cells” (Molecules, 2020).

How the values were obtained:
[1] = molecular target: T1, P-gp (Homo sapiens, UniProt P08183); test: Rhodamine-123 uptake test on K562/DOX cells (flow cytometry); assay type: cell-based
T1 construct: doxorubicin resistant K562/DOX cell line overexpresses almost exclusively the transporter membrane protein P-gp; endogenous in cells; host or cells: K562/DOX (doxorubicin-selected human erythroleukemia cells)
T1 sequence (P08183 whole entry): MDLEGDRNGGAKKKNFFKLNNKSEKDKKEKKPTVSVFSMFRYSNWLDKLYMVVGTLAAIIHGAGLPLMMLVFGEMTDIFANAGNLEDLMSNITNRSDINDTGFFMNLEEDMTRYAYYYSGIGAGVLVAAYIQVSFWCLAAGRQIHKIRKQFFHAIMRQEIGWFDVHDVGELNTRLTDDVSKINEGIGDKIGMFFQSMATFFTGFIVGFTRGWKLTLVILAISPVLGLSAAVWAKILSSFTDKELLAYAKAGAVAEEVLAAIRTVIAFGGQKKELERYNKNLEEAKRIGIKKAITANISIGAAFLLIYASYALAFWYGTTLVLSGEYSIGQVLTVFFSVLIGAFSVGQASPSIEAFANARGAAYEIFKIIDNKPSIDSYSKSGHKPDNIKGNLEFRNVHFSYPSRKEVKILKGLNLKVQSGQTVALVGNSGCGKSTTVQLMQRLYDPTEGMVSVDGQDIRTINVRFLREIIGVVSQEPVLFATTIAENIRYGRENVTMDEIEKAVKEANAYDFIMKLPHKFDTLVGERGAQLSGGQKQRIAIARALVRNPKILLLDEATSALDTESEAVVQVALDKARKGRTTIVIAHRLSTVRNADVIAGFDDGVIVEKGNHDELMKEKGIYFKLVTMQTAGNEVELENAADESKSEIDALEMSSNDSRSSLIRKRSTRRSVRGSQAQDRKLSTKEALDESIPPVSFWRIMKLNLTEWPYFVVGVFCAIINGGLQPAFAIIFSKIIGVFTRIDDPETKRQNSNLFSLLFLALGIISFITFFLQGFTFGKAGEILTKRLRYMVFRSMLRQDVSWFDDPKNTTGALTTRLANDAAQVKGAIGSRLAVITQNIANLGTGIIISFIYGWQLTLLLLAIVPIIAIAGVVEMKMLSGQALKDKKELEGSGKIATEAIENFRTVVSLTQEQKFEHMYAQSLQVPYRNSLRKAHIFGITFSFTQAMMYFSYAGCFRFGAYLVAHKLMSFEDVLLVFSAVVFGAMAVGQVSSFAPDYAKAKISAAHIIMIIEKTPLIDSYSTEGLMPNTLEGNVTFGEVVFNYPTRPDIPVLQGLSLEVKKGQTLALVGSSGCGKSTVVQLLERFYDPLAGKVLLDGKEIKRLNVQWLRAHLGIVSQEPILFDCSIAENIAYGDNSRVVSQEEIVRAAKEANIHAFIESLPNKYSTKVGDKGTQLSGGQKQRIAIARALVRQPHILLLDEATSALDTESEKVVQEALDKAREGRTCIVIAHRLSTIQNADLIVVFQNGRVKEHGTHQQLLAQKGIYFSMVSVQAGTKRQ
Experimental: The results were expressed as the FR (fluorescence ratio), which is the ratio between the average fluorescence intensity of rhodamine in the presence and in the absence of modulators. Value 1 was attributed to the average fluorescence intensity of the samples exposed only to rhodamine.
An aliquot of cells (control) was incubated with the fluorochrome in the absence of inhibitors.
At the end of the uptake, cells were sedimented, washed twice in ice-cold PBS, placed in PBS on ice, and kept in the dark until flow cytometric analysis.
The histograms were generated by program GraphPad Prism 5 (GraphPad Prism software, Inc., San Diego, CA, USA); the data were obtained from the ratio between the average fluorescence intensity of the samples preincubated with the compounds under study and subsequently exposed to rhodamine, and the fluorescence of the sample exposed only to the rhodamine.

[2] = molecular target: T2, hCA II (Homo sapiens, UniProt P00918); test: Stopped-flow CO2 hydrase assay, hCA II; assay type: biochemical; conditions: for hCA II vs. hCA XII preference: ratio of Ki values; for Ki: stopped flow, mean from 3 assays
T2 construct: made in house
Experimental: (§1) An SX.18MV-R Applied Photophysics (Oxford, UK) stopped-flow instrument was used to assay the catalytic/inhibition of various CA isozymes. […] Saturated CO2 solutions in water at 25 °C were used as a substrate. Stock solutions of inhibitors were prepared at a concentration of 10 μM (in DMSO-water 1:1, v/v) and dilutions up to 0.01 nM done with the assay buffer mentioned above. […] Inhibitor and enzyme solutions were preincubated together for 10 min at room temperature prior to the assay, in order to allow for the formation of the E–I complex. […] The inhibition constants were obtained by non-linear least-squares methods using the Cheng–Prusoff equation, as reported earlier, and represent the mean from at least three different determinations. All CA isozymes used here were recombinant proteins obtained as reported earlier by our group.

[3] = molecular target: T3, hCA I (Homo sapiens, UniProt P00915); test: Stopped-flow CO2 hydrase assay, hCA I; assay type: biochemical; conditions: mean from 3 assays
T3 construct: made in house
T3 sequence (P00915 whole entry): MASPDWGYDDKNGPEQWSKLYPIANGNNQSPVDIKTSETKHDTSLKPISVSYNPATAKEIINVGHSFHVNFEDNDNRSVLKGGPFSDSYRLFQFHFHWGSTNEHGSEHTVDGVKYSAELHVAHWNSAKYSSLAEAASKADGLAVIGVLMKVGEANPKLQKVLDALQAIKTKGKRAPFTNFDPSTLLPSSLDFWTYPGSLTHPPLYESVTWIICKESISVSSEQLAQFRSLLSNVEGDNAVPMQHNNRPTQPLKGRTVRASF
Experimental: as §1

[4] = molecular target: T4, hCA IX (Homo sapiens, UniProt Q16790); test: Stopped-flow CO2 hydrase assay, hCA IX; assay type: biochemical; conditions: for Ki: stopped flow, mean from 3 assays; for more potent on hCA IX than on hCA XII: ratio of Ki values
T4 construct: made in house
Experimental: as §1

[5] = molecular target: T5, hCA XII (Homo sapiens, UniProt O43570); test: Stopped-flow CO2 hydrase assay, hCA XII; assay type: biochemical; conditions: for Ki: stopped flow, mean from 3 assays
T5 construct: made in house
T5 sequence (O43570 25-354): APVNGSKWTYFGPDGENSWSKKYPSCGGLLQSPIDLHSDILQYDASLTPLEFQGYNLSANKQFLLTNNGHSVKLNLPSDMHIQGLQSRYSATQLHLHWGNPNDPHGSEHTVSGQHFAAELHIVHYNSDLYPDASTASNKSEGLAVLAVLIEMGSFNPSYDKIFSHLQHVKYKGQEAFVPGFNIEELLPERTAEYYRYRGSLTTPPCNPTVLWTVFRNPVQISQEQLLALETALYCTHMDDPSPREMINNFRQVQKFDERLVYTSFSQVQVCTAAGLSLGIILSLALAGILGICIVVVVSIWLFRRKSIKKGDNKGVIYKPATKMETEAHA
Experimental: as §1

| SMILES | hCA II vs. hCA XII preference [2] | more potent on hCA IX than on hCA XII [4] | FR (fluorescence ratio, Rhd 123 uptake with/without modulator) ([1]; compound 3 µM) | FR (fluorescence ratio, Rhd 123 uptake with/without modulator) ([1]; compound 30 µM) | Ki [2] | Ki [3] | Ki [4] | Ki [5] | preference for hCA XII with respect to hCA IX ([5]; ratio of Ki values) |
| --- | --- | --- | --- | --- | --- | --- | --- | --- | --- |
| COc1cc(/C=C/C(=O)OCCCN(C)CCCCCOC(=O)c2ccc(S(N)(=O)=O)cc2)cc(OC)c1OC [Compound 16, (E)-5-(methyl(3-((3-(3,4,5-trimethoxyphenyl)acryloyl)oxy)propyl)amino)pentyl 4-sulfamoyl benzoate] |  |  | 1.08 | 1.83 | 555 nM | 447 nM | 211 nM | 94.3 nM |  |
| COc1cc(/C=C/C(=O)OCCCCCN(C)CCCCCOC(=O)COc2ccc3ccc(=O)oc3c2)cc(OC)c1OC [Compound 4, (E)-5-(methyl(5-(2-((2-oxo-2H-chromen-7-yl)oxy)acetoxy)pentyl)amino)pentyl 3-(3,4,5-trimethoxyphenyl)acrylate] |  |  | 1.99 | 5.45 | > 10000 nM | > 10000 nM | 26.6 nM | 18.9 nM |  |
| COc1cc(/C=C/C(=O)OCCCCCN(C)CCCOC(=O)COc2ccc3ccc(=O)oc3c2)cc(OC)c1OC [Compound 3, (E)-5-(methyl(3-(2-((2-oxo-2H-chromen-7-yl)oxy)acetoxy)propyl)amino)pentyl 3-(3,4,5-trimethoxyphenyl)acrylate] |  |  | 1.00 | 2.58 | > 10000 nM | > 10000 nM | 54.6 nM | 48.8 nM |  |
| COc1cc(C(=O)OCCCCCCCN(C)CCOC(=O)COc2ccc3ccc(=O)oc3c2)cc(OC)c1OC [Compound 11, 7-(methyl(2-(2-((2-oxo-2H-chromen-7-yl)oxy)acetoxy)ethyl)amino)heptyl 3,4,5-trimethoxy benzoate] |  |  | 1.11 | 1.58 | > 10000 nM | > 10000 nM | 97.1 nM | 8.3 nM |  |
| COc1cc(/C=C/C(=O)OCCCN(C)CCCOC(=O)COc2ccc3ccc(=O)oc3c2)cc(OC)c1OC [Compound 1, (E)-3-(methyl(3-(2-((2-oxo-2H-chromen-7-yl)oxy)acetoxy)propyl)amino)propyl 3-(3,4,5-trimethoxyphenyl)acrylate] |  |  | 1.44 | 4.76 | > 10000 nM | > 10000 nM | 142 nM | 9.3 nM |  |
| COc1cc(/C=C/C(=O)OCCCCCN(C)CCCCCOC(=O)c2ccc(S(N)(=O)=O)cc2)cc(OC)c1OC [Compound 18, (E)-5-(methyl(5-((3-(3,4,5-trimethoxyphenyl)acryloyl)oxy)pentyl)amino)pentyl 4-sulfamoyl benzoate] |  |  | 1.00 | 4.99 | 425 nM | 62.6 nM | 226 nM | 62.6 nM |  |
| CN(CCCCCCOC(=O)c1c2ccccc2cc2ccccc12)CCCOC(=O)c1ccc(S(N)(=O)=O)cc1 [Compound 27, 6-(methyl(3-((4-sulfamoylbenzoyl)oxy)propyl)amino)hexyl anthracene-9-carboxylate] |  |  | 1.08 | 2.03 | 422 nM | 617 nM | 28.2 nM | 31.3 nM |  |
| COc1cc(C(=O)OCCCCCCN(C)CCCOC(=O)COc2ccc3ccc(=O)oc3c2)cc(OC)c1OC [Compound 10, 6-(methyl(3-(2-((2-oxo-2H-chromen-7-yl)oxy)acetoxy)propyl)amino)hexyl 3,4,5-trimethoxy benzoate] |  |  | 1.16 | 2.18 | > 10000 nM | > 10000 nM | 103 nM | 8.9 nM |  |
| COc1cc(/C=C/C(=O)OCCCCCCN(C)CCCCOC(=O)COc2ccc3ccc(=O)oc3c2)cc(OC)c1OC [Compound 6, (E)-6-(methyl(4-(2-((2-oxo-2H-chromen-7-yl)oxy)acetoxy)butyl)amino)hexyl 3-(3,4,5-trimethoxyphenyl)acrylate] |  |  | 1.39 | 1.98 | > 10000 nM | > 10000 nM | 40.2 nM | 36.4 nM |  |
| COc1cc(C(=O)OCCCN(C)CCCCCOC(=O)COc2ccc3ccc(=O)oc3c2)cc(OC)c1OC [Compound 9, 3-(methyl(5-(2-((2-oxo-2H-chromen-7-yl)oxy)acetoxy)pentyl)amino)propyl 3,4,5-trimethoxy benzoate] |  |  | 1.00 | 3.95 | > 10000 nM | > 10000 nM | 133 nM | 9.2 nM |  |
| CN(CCCCCOC(=O)COc1ccc2ccc(=O)oc2c1)CCCOC(=O)c1c2ccccc2cc2ccccc12 [Compound 12, 3-(methyl(5-(2-((2-oxo-2H-chromen-7-yl)oxy)acetoxy)pentyl)amino)propyl anthracene-9-carboxylate] |  |  | 1.00 | 2.53 | > 10000 nM | > 10000 nM | 151 nM | 45.7 nM |  |
| COc1cc(/C=C/C(=O)OCCCN(C)CCCOC(=O)c2ccc(S(N)(=O)=O)cc2)cc(OC)c1OC [Compound 15, (E)-3-(methyl(3-((3-(3,4,5-trimethoxyphenyl)acryloyl)oxy)propyl)amino)propyl 4-sulfamoyl benzoate] |  |  | 1.00 | 2.30 | 152 nM | 55.1 nM | 178 nM | 91 nM |  |
| CN(CCCCCCOC(=O)c1c2ccccc2cc2ccccc12)CCCOC(=O)COc1ccc2ccc(=O)oc2c1 [Compound 13, 6-(methyl(3-(2-((2-oxo-2H-chromen-7-yl)oxy)acetoxy)propyl)amino)hexyl anthracene-9-carboxylate] |  |  | 1.43 | 2.45 | > 10000 nM | > 10000 nM | 82.7 nM | 9.1 nM | nine |
| COc1cc(/C=C/C(=O)OCCCCCN(C)CCCOC(=O)c2ccc(S(N)(=O)=O)cc2)cc(OC)c1OC [Compound 17, (E)-3-(methyl(5-((3-(3,4,5-trimethoxyphenyl)acryloyl)oxy)pentyl)amino)propyl 4-sulfamoyl benzoate] |  |  | 1.13 | 3.90 | 204 nM | 56.6 nM | 215 nM | 33.1 nM |  |

The next lines start with results.

| hCA II vs. hCA XII preference [2] | more potent on hCA IX than on hCA XII [4] | SMILES | FR (fluorescence ratio, Rhd 123 uptake with/without modulator) ([1]; compound 3 µM) | FR (fluorescence ratio, Rhd 123 uptake with/without modulator) ([1]; compound 30 µM) | Ki [2] | Ki [3] | Ki [4] | Ki [5] | preference for hCA XII with respect to hCA IX ([5]; ratio of Ki values) |
| --- | --- | --- | --- | --- | --- | --- | --- | --- | --- |
| 7 times |  | COc1cc(/C=C/C(=O)OCCCCCCN(C)CCCOC(=O)c2ccc(S(N)(=O)=O)cc2)cc(OC)c1OC [Compound 19, (E)-3-(methyl(6-((3-(3,4,5-trimethoxyphenyl)acryloyl)oxy)hexyl)amino)propyl 4-sulfamoyl benzoate] | 1.06 | 3.23 | 8.4 nM | 510 nM | 39.7 nM | 58.6 nM |  |
| 6.5 times | twice | COc1cc(C(=O)OCCCCCCN(C)CCCOC(=O)c2ccc(S(N)(=O)=O)cc2)cc(OC)c1OC [Compound 24, 6-(methyl(3-((4-sulfamoylbenzoyl)oxy)propyl)amino)hexyl 3,4,5-trimethoxybenzoate] | 1.42 | 2.88 | 8.9 nM | 83.5 nM | 25.3 nM | 57.6 nM |  |
|  | twice | COc1cc(C(=O)OCCCN(C)CCCCCOC(=O)c2ccc(S(N)(=O)=O)cc2)cc(OC)c1OC [Compound 23, 3-(methyl(5-((4-sulfamoylbenzoyl)oxy)pentyl)amino)propyl 3,4,5-trimethoxybenzoate] | 1.00 | 1.66 | 128 nM | 284 nM | 26.6 nM | 63.7 nM |  |
| 3 times |  | COc1cc(/C=C/C(=O)OCCCCCCN(C)CCCCOC(=O)c2ccc(S(N)(=O)=O)cc2)cc(OC)c1OC [Compound 20, (E)-4-(methyl(6-((3-(3,4,5-trimethoxyphenyl)acryloyl)oxy)hexyl)amino)butyl 4-sulfamoyl benzoate] | 1.01 | 2.58 | 14 nM | 84.5 nM | 33.9 nM | 41.7 nM |  |
